# Measured values published in article PMC3001719, “The heme sensing response regulator HssR in Staphylococcus aureus but not the homologous RR23 in Listeria monocytogenes modulates susceptibility to the antimicrobial peptide plectasin” (BMC Microbiology, 2010).
# Experiments:
# [1] = system: S. aureus wild type and response regulator mutants; test: Antibiotic susceptibility, commercial MIC technique (Trek); assay type: cell-based, Staphylococcus aureus; details: dehydrated antimicrobials in microtitre wells, data not shown
# Experimental: (§1) Antimicrobial susceptibility to ampicillin, gentamicin, sulfa/trimethoprim, rifampicin, tetracycline, amoxy/clavulan, cephalotin, clindamycin, enrofloxacin, fusidic acid and oxacillin was performed with a commercially available MIC technique using dehydrated antimicrobials in microtitre wells (Trek Diagnostic Systems Ltd., UK).
# [2] = system: L. monocytogenes wild type and response regulator mutant; test: as above; assay type: cell-based, Listeria monocytogenes; details: dehydrated antimicrobials in microtitre wells, data not shown
# Experimental: as §1
# [3] = system: S. aureus 15981 wild type; test: MIC, microbroth dilution; assay type: cell-based, Staphylococcus aureus; details: MHB pH 7.4, 5.0 × 10^5 CFU/ml, 18-24 h at 37°C, visual growth
# Experimental: (§2) Protamine was purchased from Sigma (P4020-5G). Plectasin, eurocin, novicidin, and novispirin G10 were supplied by Department of Antiinfective Discovery, Novozymes A/S. The host defence peptides were dissolved in 0.01% acetic acid/0.1% bovine serum albumin (Sigma, A7906).
# (§3) Minimal inhibitory concentrations (MIC) of plectasin, eurocin, protamine, novicidin, and novispirin G10 were determined using a microbroth dilution method. Colonies from a BHI plate incubated overnight at 37 °C were suspended in MHB pH 7.4 to an absorbance at 546 nm of 0.11-0.12 at 546 nm (approx. 1.0 × 10^8 CFU/ml) and diluted in MHB to a concentration of 5.0 × 10^5 CFU/ml. Ninety μl of bacterial suspension was incubated with 10 μl of peptide solution in polypropylene 96-well plates (Nunc, 442587) for 18-24 h at 37°C. The peptide solutions were made fresh on the day of assay. The range of concentrations assayed were 0.25-256 μg/ml for plectasin and eurocin, 0.125-128 μg/ml for protamine and novispirin G10, and 0.031-32 μg/ml for novicidin. MIC was the lowest peptide concentration at which visual growth was inhibited.
# [4] = system: S. aureus 15981 ΔTCS15 (hssRS) deletion mutant; test: MIC, microbroth dilution; assay type: cell-based, Staphylococcus aureus; details: MHB pH 7.4, 5.0 × 10^5 CFU/ml, 18-24 h at 37°C, visual growth
# Experimental: as §2, §3
# [5] = system: S. aureus 8325-4 hssR (transduced mutant); test: MIC, microbroth dilution; assay type: cell-based, Staphylococcus aureus; details: transduced 8325-4 hssR mutant, MHB pH 7.4, 5.0 × 10^5 CFU/ml, 18-24 h at 37°C, visual growth
# Experimental: as §2, §3
# [6] = system: S. aureus 8325-4 hssR::bursa transposon mutant; test: MIC, microbroth dilution; assay type: cell-based, Staphylococcus aureus; details: MHB pH 7.4, 5.0 × 10^5 CFU/ml, 18-24 h at 37°C, visual growth
# Experimental: as §2, §3
# [7] = system: S. aureus 8325-4 hssR::bursa/pRMC2-hssRS (complementation of hssR transposon mutant); test: MIC, microbroth dilution; assay type: cell-based, Staphylococcus aureus; details: 8325-4 hssR::bursa/pRMC2-hssRS complemented mutant; microbroth dilution, MHB pH 7.4, 5.0 × 10^5 CFU/ml, 18-24 h at 37°C, visual growth
# Experimental: as §2, §3
# [8] = system: S. aureus 8325-4 wild type; test: MIC, microbroth dilution; assay type: cell-based, Staphylococcus aureus; details: MHB pH 7.4, 5.0 × 10^5 CFU/ml, 18-24 h at 37°C, visual growth
# Experimental: as §2, §3
# [9] = system: L. monocytogenes LO28 wild type; test: MIC, microbroth dilution; assay type: cell-based, Listeria monocytogenes; details: MHB pH 7.4, 5.0 × 10^5 CFU/ml, 18-24 h at 37°C, visual growth
# Experimental: as §2, §3
# S. aureus = test: ATP leakage (intracellular and extracellular ATP, bioluminescence); assay type: cell-based, Staphylococcus aureus; details: 50 mM HEPES pH 7.0 with 0.2% glucose, vs peptide dilution buffer, two independent experiments; for ATP leakage: S. aureus, 1,000 μg/ml peptide
# Experimental: (§4) L. monocytogenes and S. aureus were grown in TSB at 37°C. Bacteria were harvested (10 min at 3000 RPM) at mid-exponential phase (absorbance at 546 nm of 2.5 ± 0.2 and 1.0 ± 0.2 for S. aureus and L. monocytogenes, respectively), washed once in 50 mM potassium phosphate buffer pH 7.0 and once in 50 mM HEPES buffer pH 7.0. The pellet was resuspended in 50 mM HEPES pH 7.0 to a final absorbance at 546 nm of 10. Bacteria were stored on ice and used within 5 hours. […] ATP was determined using a bioluminescence kit (Sigma, FLAA-1KT) and a BioOrbit 1253 luminometer. Total ATP content was determined by rapidly permeabilising 20 μl cell suspension with 80 μl dimethyl sulfoxide. The cell suspension was diluted in 4.9 ml sterile water, and ATP content was determined in 100 μl of the preparation as described by the manufacturer. To determine the extracellular ATP concentration, the 20 μl cell suspension was mixed with 80 μl sterile water and analyzed as described above. Intracellular ATP concentrations were calculated by using the intracellular volumes of 0.85 and 1.7 μm^3 for S. aureus and L. monocytogenes, respectively. The number of cells in suspension was determined by plate spreading.
# L. monocytogenes = test: as above; assay type: cell-based, Listeria monocytogenes; details: 50 mM HEPES pH 7.0 with 0.2% glucose, vs peptide dilution buffer; for ATP leakage: L. monocytogenes, 1,000 μg/ml peptide
# Experimental: as §4
# [10] = system: plasmid DNA (pBluescript II SK+); test: DNA-binding analysis by in vitro gel retardation; details: 100 ng plasmid DNA with increasing amounts of peptide, 1 h at room temperature, data not shown
# Experimental: Gel retardation analysis were performed as described by Nan et al by mixing 100 ng of plasmid DNA (pBluescript II SK^+(Stratagene)) with increasing amounts of peptide in 20 μl binding buffer (5% glycerol, 10 mM Tris, 1 mM EDTA, 1 mM dithiothreitol, 20 mM KCL and 50 μg ml^-1 bovine serum albumin). Reaction mixtures were incubated 1 h at room temperature and subjected to 1% agarose gel electrophoresis and visualised using ethidium bromide.
# [11] = system: S. aureus 8325-4 hssR mutant; test: Growth in TSB with plectasin and/or hemin; assay type: cell-based, Staphylococcus aureus; details: hemin 4 μM, 37°C, with or without plectasin, hssR mutant
# Experimental: (§5) Overnight cultures of S. aureus were diluted to an absorbance at 600 nm of 0.05 in TSB with and without 4 μM hemin and/or 35 μg/ml plectasin and grown at 37°C. Measurements of the absorbance were made every 30 minutes.
# [12] = system: S. aureus 8325-4 wild type; test: Growth in TSB with plectasin and/or hemin; assay type: cell-based, Staphylococcus aureus; details: hemin 4 μM, 37°C, absorbance at 600 nm
# Experimental: as §5
# [13] = system: hrtAB efflux system expression; details: exposure to hemin, transcriptional activation by HssR; cited from earlier work
# Source text: Both HrtAB and HssRS are required for growth of S. aureus in hemin [14].
# [14] = system: L. monocytogenes LO28 RR23 (rr23 insertion mutant); test: MIC, microbroth dilution; assay type: cell-based, Listeria monocytogenes; details: MHB pH 7.4, 5.0 × 10^5 CFU/ml, 18-24 h at 37°C, visual growth
# Experimental: as §2, §3
compound,measurement,setting,value
CC1(C)S[C@@H]2[C@H](NC(=O)[C@H](N)c3ccccc3)C(=O)N2[C@H]1C(=O)O [ampicillin],"Change in MIC, wild type vs response regulator mutants",[1],No change in MIC values
same,"Change in MIC, wild type vs response regulator mutant",[2],No change in MIC values
CC(=O)OCC1=C(C(=O)O)N2C(=O)[C@@H](NC(=O)Cc3cccs3)[C@H]2SC1 [cephalotin],"Change in MIC, wild type vs response regulator mutants",[1],No change in MIC values
same,"Change in MIC, wild type vs response regulator mutant",[2],No change in MIC values
CCC[C@@H]1C[C@@H](C(=O)N[C@@H]([C@H]2O[C@H](SC)[C@H](O)[C@@H](O)[C@H]2O)[C@H](C)Cl)N(C)C1 [clindamycin],"Change in MIC, wild type vs response regulator mutants",[1],No change in MIC values
same,"Change in MIC, wild type vs response regulator mutant",[2],No change in MIC values
CCN1CCN(c2cc3c(cc2F)c(=O)c(C(=O)O)cn3C2CC2)CC1 [enrofloxacin],"Change in MIC, wild type vs response regulator mutants",[1],No change in MIC values
same,"Change in MIC, wild type vs response regulator mutant",[2],No change in MIC values
CC(=O)O[C@H]1C[C@@]2(C)[C@@H](C[C@@H](O)[C@H]3[C@@]4(C)CC[C@@H](O)[C@@H](C)[C@@H]4CC[C@@]32C)/C1=C(\CCC=C(C)C)C(=O)O [fusidic acid],"Change in MIC, wild type vs response regulator mutants",[1],No change in MIC values
same,"Change in MIC, wild type vs response regulator mutant",[2],No change in MIC values
CNC(C)C1CCC(N)C(OC2C(N)CC(N)C(OC3OCC(C)(O)C(NC)C3O)C2O)O1 (centres unmarked) [gentamicin],"Change in MIC, wild type vs response regulator mutants",[1],No change in MIC values
same,"Change in MIC, wild type vs response regulator mutant",[2],No change in MIC values
Cc1onc(-c2ccccc2)c1C(=O)N[C@@H]1C(=O)N2[C@@H]1SC(C)(C)[C@@H]2C(=O)O [oxacillin],"Change in MIC, wild type vs response regulator mutants",[1],No change in MIC values
same,"Change in MIC, wild type vs response regulator mutant",[2],No change in MIC values
CO[C@H]1/C=C/O[C@@]2(C)Oc3c(C)c(O)c4c(O)c(c(/C=N/N5CCN(C)CC5)c(O)c4c3C2=O)NC(=O)/C(C)=C\C=C\[C@H](C)[C@H](O)[C@@H](C)[C@@H](O)[C@@H](C)[C@H](OC(C)=O)[C@@H]1C [rifampicin],"Change in MIC, wild type vs response regulator mutants",[1],No change in MIC values
same,"Change in MIC, wild type vs response regulator mutant",[2],No change in MIC values
CN(C)[C@@H]1C(O)=C(C(N)=O)C(=O)[C@@]2(O)C(O)=C3C(=O)c4c(O)cccc4[C@@](C)(O)[C@H]3C[C@@H]12 [tetracycline],"Change in MIC, wild type vs response regulator mutants",[1],No change in MIC values
same,"Change in MIC, wild type vs response regulator mutant",[2],No change in MIC values
eurocin,MIC,[3],8 µg/mL
same,MIC,[4],32 µg/mL
same,MIC,[5],64 µg/mL
same,MIC,[6],64 µg/mL
same,MIC,[7],32 µg/mL
same,MIC,[8],32 µg/mL
same,MIC,[9],128 µg/mL
same,ATP leakage (intracellular ATP concentration),"S. aureus; S. aureus, 500 μg/ml peptide",remained at the same level as the controls
same,ATP leakage (intracellular ATP concentration),"L. monocytogenes; L. monocytogenes, 500 μg/ml peptide",remained at the same level as the controls
same,Binding to DNA,[10],unable to demonstrate binding
hemin,Growth in the presence of hemin,[11],almost completely inhibited
same,Growth in the presence of hemin,[12],only affected by plectasin (35 μg/ml) and not hemin
same,Increase of expression of hrtAB efflux system,[13],45 fold
novicidin,MIC,[3],1 µg/mL
same,MIC,[4],1 µg/mL
same,MIC,[5],1 µg/mL
same,MIC,[6],1 µg/mL
same,MIC,[8],1 µg/mL
same,MIC,[14],1 µg/mL
same,MIC,[9],1 µg/mL
same,ATP leakage,S. aureus,increased ATP leakage
same,ATP leakage,L. monocytogenes,increased ATP leakage
novispirin G10,MIC,[3],>128 µg/mL
same,MIC,[8],128 µg/mL
same,MIC,[14],16 µg/mL
same,MIC,[9],16 µg/mL
protamine,MIC,[3],16 µg/mL
same,MIC,[4],16 µg/mL
same,MIC,[5],16 µg/mL
same,MIC,[6],16 µg/mL
same,MIC,[8],16 µg/mL
same,MIC,[14],16 µg/mL
same,MIC,[9],16 µg/mL
same,ATP leakage,S. aureus,increased ATP leakage
same,ATP leakage,L. monocytogenes,increased ATP leakage
